Patent publication US11802120B2, “Fused cyclic urea derivatives as CRHR2 antagonist” (RaQualia Pharma Inc., priority 2018, dated 2023)

Biological target: T1, human CRHR2-alpha (Homo sapiens, UniProt Q13324)
T1 sequence (Q13324 1-411): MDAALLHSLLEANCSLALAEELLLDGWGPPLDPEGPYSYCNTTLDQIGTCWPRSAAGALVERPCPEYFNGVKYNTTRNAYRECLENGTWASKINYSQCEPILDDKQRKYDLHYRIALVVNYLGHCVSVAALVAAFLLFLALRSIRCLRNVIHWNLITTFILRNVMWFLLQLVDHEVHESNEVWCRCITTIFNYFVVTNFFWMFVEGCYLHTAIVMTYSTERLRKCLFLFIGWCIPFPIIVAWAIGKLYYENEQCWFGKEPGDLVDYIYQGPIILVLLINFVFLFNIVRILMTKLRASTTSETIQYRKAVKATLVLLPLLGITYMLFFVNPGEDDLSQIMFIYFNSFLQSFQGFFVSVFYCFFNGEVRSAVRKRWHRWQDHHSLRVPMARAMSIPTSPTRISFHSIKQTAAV
Assay: cAMP functional assay for human CRHR2 (LANCE Ultra cAMP, TR-FRET)
Format: cell-based
Conditions: CHO-K1 cells expressing human CRHR2-alpha, agonist human urocortin2 at EC80, cAMP; read-out: IC50 against CRHR2
In short: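 CHO-K1 stable lines; 4,000 cells/well; compound 30 min, 25° C; EC80 agonist (human urocortin2 → CRHR2, CRF → CRHR1) 30 min, 25° C; buffer HBSS/0.1% BSA/0.5 mM IBMX/5 mM Hepes pH 7.4; Eu-cAMP tracer + ULight antibody 60 min; TR-FRET read; IC50 from % inhibition curves.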

IC50, < 300 nM:
COc1ncc(-n2c(=O)n(C[C@H]3CC[C@H](NC(=O)c4cc(Cl)cnc4C)CC3)c3ccccc32)cc1C [Example 120, 5-chloro-N-((1r,4r)-4-((3-(6-methoxy-5-methylpyridin-3-yl)-2-oxo-2,3-dihydro-1H-benzo[d]imidazol-1-yl)methyl)cyclohexyl)-2-methylnicotinamide]
N#Cc1ccccc1-n1c(=O)n(C[C@H]2CC[C@H](NC(=O)c3cc(Cl)cnc3C(F)(F)F)CC2)c2ccccc21 [Example 291, 5-chloro-N-((1r,4r)-4-((3-(2-cyanophenyl)-2-oxo-2,3-dihydro-1H-benzo[d]imidazol-1-yl)methyl)cyclo-hexyl)-2-(trifluoromethyl) nicotinamide]
CNC(=O)c1ccc(-n2c(=O)n(C[C@H]3CC[C@H](NC(=O)c4cc(Cl)cnc4C(F)F)CC3)c3ccccc32)c(C)n1 [Example 556, 5-(3-(((1r,4r)-4-(5-chloro-2-(difluoromethyl)nicotina-mido)cyclohexyl)methyl)-2-oxo-2,3-dihydro-1H-benzo[d]imidazol-1-yl)-N,6-dimethylpicolinamide]
Cc1ncc(Cl)cc1C(=O)N[C@H]1CC[C@H](Cn2c(=O)n(-c3ccc(OCC4CC4)nc3)c3ccccc32)CC1 [Example 112, 5-chloro-N-(4-((3-(6-(cyclopropylmethoxy)pyridin-3-yl)-2-oxo-2,3-dihydro-1H-benzo [d]imidazol-1-yl)methyl)cyclohexyl)-2-methylnicotinamide]
COc1ccc(-n2c(=O)n(C[C@H]3CC[C@H](NC(=O)c4cc(Cl)cnc4C)CC3)c3cccnc32)cc1 [Example 190, 5-chloro-N-((1r,4r)-4-((3-(4-methoxyphenyl)-2-oxo-2,3-dihydro-1H-imidazo [4,5-b]pyridin-1-yl)methyl)cyclohexyl)-2-methylnico-tinamide]
Cc1ncc(Cl)cc1C(=O)N[C@H]1CC[C@H](Cn2c(=O)n(-c3ccc4c(c3)nnn4C)c3ccccc32)CC1 [Example 255, 5-chloro-2-methyl-N-((1r,4r)-4-((3-(1-methyl-1H-benzo[d] [1,2,3]triazol-5-yl)-2-oxo-2,3-dihydro-1H-benzo[d]imidazol-1-yl)methyl)cyclohexyl) nicotinamide]
CNC(=O)c1ccc(-n2c(=O)n(C[C@H]3CC[C@H](NC(=O)c4cc(Cl)cnc4C(F)F)CC3)c3cccc(C)c32)cn1 [Example 527, 5-(3-(((1r,4r)-4-(5-chloro-2-(difluoromethyl)nicotinamido)cyclohexyl)methyl)-7-methyl-2-oxo-2,3-dihydro-1H-benzo [d]imidazol-1-yl)-N-methylpicolinamide]
CNc1cccc(-n2c(=O)n(C[C@H]3CC[C@H](NC(=O)c4cc(Cl)cnc4C(F)F)CC3)c3ccccc32)n1 [Example 662, 5-chloro-2-(difluoromethyl)-N-((1r,4r)-4-((3-(6-(methylamino)pyridin-2-yl)-2-oxo-2,3-dihydro-1H-benzo[d]imidazol-1-yl)methyl)cyclohexyl)nicotinamide]
Cc1ccc(-n2c(=O)n(C[C@H]3CC[C@H](NC(=O)c4cc(Cl)cnc4C)CC3)c3c(F)cccc32)cn1 [Example 124, 5-chloro-N-((1r,4r)-4-((7-fluoro-3-(6-methylpyridin-3-yl)-2-oxo-2,3-dihydro-1H-benzo[d]imidazol-1-yl)methyl)cyclo-hexyl)-2-methylnicotinamide]
Cc1ncc(Cl)cc1C(=O)N[C@H]1CC[C@H](Cn2c(=O)n(-c3cnccc3C#N)c3ccccc32)CC1 [Example 248, 5-chloro-N-((1r,4r)-4-((3-(4-cyanopyridin-3-yl)-2-oxo-2,3-dihydro-1H-benzo[d]imidazol-1-yl)methyl)cyclohexyl)-2-methylnicotinamide]
O=C(N[C@H]1CC[C@H](Cn2c(=O)n(-c3ccc(NCCO)nc3)c3ccc(F)cc32)CC1)c1cc(Cl)cnc1C(F)F [Example 713, 5-chloro-2-(difluoromethyl)-N-((1r,4r)-4-((6-fluoro-3-(6-((2-hydroxyethyl)amino)pyridin-3-yl)-2-oxo-2,3-di-hydro-1H-benzo[d]imidazol-1-yl)methyl)cyclohexyl) nicotinamide]
N#Cc1ccncc1-n1c(=O)n(C[C@H]2CC[C@H](NC(=O)c3cc(Cl)cnc3C(F)F)CC2)c2ccccc21 [Example 373, 5-chloro-N-((1r,4r)-4-((3-(4-cyanopyridin-3-yl)-2-oxo-2,3-dihydro-1H-benzo[d]imidazol-1-yl)methyl)cyclohexyl)-2-(difluoromethyl)nicotinamide]
COc1ccc(-n2c(=O)n(C[C@H]3CC[C@H](NC(=O)c4cc(Cl)cnc4C)CC3)c3cccnc32)cc1OC1CCCC1 [Example 401, 5-chloro-N-((1r,4r)-4-((3-(3-(cyclopentyloxy)-4-methoxy-phenyl)-2-oxo-2,3-dihydro-1H-imidazo[4,5-b]pyridin-1-yl)methyl)cyclohexyl)-2-methylnicotinamide]
CNC(=O)c1ccc(-n2c(=O)n(C[C@H]3CC[C@H](NC(=O)c4cc(Cl)cnc4C(F)F)CC3)c3ccc(OC)cc32)cn1 [Example 390, 5-(3-(((1r,4r)-4-(5-chloro-2-(difluoromethyl)nicotinamido)cyclohexyl)methyl)-6-me-thoxy-2-oxo-2,3-dihydro-1H-benzo[d]imidazol-1-yl)-N-methylpicolinamide]
Cc1ncc(Cl)cc1C(=O)N[C@H]1CC[C@H](Cn2c(=O)n(-c3cncc(N4CCOCC4)c3)c3ccccc32)CC1 [Example 413, 5-chloro-2-methyl-N-((1r,4r)-4-((3-(5-morpholinopyridin-3-yl)-2-oxo-2,3-dihydro-1H-benzo[d]imidazol-1-yl)methyl)cyclohexyl)nicotinamide]
Cc1ncc(Cl)cc1C(=O)N[C@H]1CC[C@H](Cn2c(=O)n(-c3cccc(-c4cn[nH]c4)c3)c3ccccc32)CC1 [Example 696, N-((1r,4r)-4-((3-(3-(1H-pyrazol-4-yl)phenyl)-2-oxo-2,3-dihydro-1H-benzo[d]imidazol-1-yl)methyl)cyclohexyl)-5-chloro-2-methylnicotinamide]
O=C(N[C@H]1CC[C@H](Cn2c(=O)n(-c3ccc(N[C@@H]4CCOC4)nc3)c3ccccc32)CC1)c1cc(Cl)cnc1C(F)F [Example 379, 5-chloro-2-(difluoromethyl)-N-((1R,4r)-4-((2-oxo-3-(6-(((R)-tetrahydrofuran-3-yl)amino)pyridin-3-yl)-2,3-dihydro-1H-benzo[d]imidazol-1-yl)methyl)cyclohexyl) nicotinamide]
CNc1ccc(-n2c(=O)n(C[C@H]3CC[C@H](NC(=O)c4cc(Cl)cnc4C)CC3)c3cc(F)ccc32)cn1 [Example 624, 5-chloro-N-((1r,4r)-4-((6-fluoro-3-(6-(methylamino)pyridin-3-yl)-2-oxo-2,3-dihydro-1H-benzo[d]imidazol-1-yl)methyl)cyclohexyl)-2-methylnicotinamide]
Cc1ncc(Cl)cc1C(=O)N[C@H]1CC[C@H](Cn2c(=O)n(-c3ccc4c(c3)n(C)c(=O)n4C)c3ccccc32)CC1 [Example 169, 5-chloro-N-((1r,4r)-4-((1′,3′-dimethyl-2,2′-dioxo-2′,3′-dihydro-1′H-[1,5′-bibenzo [d]imidazol]-3(2H)-yl)methyl)cyclohexyl)-2-methylnicotinamide]
O=C(N[C@H]1CC[C@H](Cn2c(=O)n(-c3ccc(-n4nccn4)cc3)c3ccccc32)CC1)c1cc(Cl)cnc1C(F)F [Example 684, N-((1r,4r)-4-((3-(4-(2H-1,2,3-triazol-2-yl)phenyl)-2-oxo-2,3-dihydro-1H-benzo[d]imidazol-1-yl)methyl)cyclo-hexyl)-5-chloro-2-(difluoro-methyl)nicotinamide]
Cc1cc2cc(-n3c(=O)n(C[C@H]4CC[C@H](NC(=O)c5cc(Cl)cnc5C(F)F)CC4)c4ccccc43)cnc2n1C [Example 674, 5-chloro-2-(difluoromethyl)-N-((1r,4r)-4-((3-(1,2-dimethyl-1H-pyrrolo[2,3-b]pyridin-5-yl)-2-oxo-2,3-dihydro-1H-benzo[d]imidazol-1-yl)methyl)cyclohexyl)nicotinamide]
CN1CCN(c2ccc(-n3c(=O)n(C[C@H]4CC[C@H](NC(=O)c5cc(Cl)cnc5C(F)F)CC4)c4ccccc43)cn2)C1=O [Example 524, 5-chloro-2-(difluoromethyl)-N-((1r,4r)-4-((3-(6-(3-methyl-2-oxoimidazolidin-1-yl)pyridin-3-yl)-2-oxo-2,3-dihydro-1H-benzo[d]imidazol-1-yl)methyl)cyclohexyl) nicotinamide]
Cc1ncc(Cl)cc1C(=O)N[C@H]1CC[C@H](Cn2c(=O)n(-c3ccc(C(=O)Nc4ccccn4)nc3)c3ccccc32)CC1 [Example 174, 5-(3-(((1r,4r)-4-(5-chloro-2-methylnicotinamido)cyclo-hexyl)methyl)-2-oxo-2,3-dihydro-1H-benzo[d]imidazol-1-yl)-N-(pyridin-2-yl) picolinamide]
